Reference: patent US20060252807A1, “Novel ortho-terphenyl inhibitors of p38 kinase and methods of treating inflammatory disorders” (Kalypsys, Inc., priority 2005, published 2006)

What follows are molecules tested against T1, active p38 alpha enzyme (Upstate Biotechnology) (Homo sapiens, UniProt Q16539) (assay: p38α biochemical assay (ATP turnover, luminescent detection, Cambrex PKlight)). Conditions: p38α biochemical assay, Table 1 Biological Activity.
T1 construct: purchased Upstate Biotechnology
T1 sequence (Q16539 whole entry): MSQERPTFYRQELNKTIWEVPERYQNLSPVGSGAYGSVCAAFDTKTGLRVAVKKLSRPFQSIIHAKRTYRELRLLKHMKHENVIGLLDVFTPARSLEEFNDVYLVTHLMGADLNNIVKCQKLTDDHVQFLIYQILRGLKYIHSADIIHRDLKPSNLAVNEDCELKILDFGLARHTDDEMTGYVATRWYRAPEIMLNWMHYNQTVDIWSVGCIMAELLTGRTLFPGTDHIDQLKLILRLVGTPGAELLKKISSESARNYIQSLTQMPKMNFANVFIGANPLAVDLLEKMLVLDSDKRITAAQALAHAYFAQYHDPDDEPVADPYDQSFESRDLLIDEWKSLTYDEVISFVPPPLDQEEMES
How it was run: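 Compounds in DMSO are added to active p38 alpha with MapkapK2 whole protein and ATP at 1.4 uM final. Reactions then run for 2 hours at 30C. A luminescent reagent is added last to quantify total ATP consumed.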

SMILES	IC50
Cc1ccc(O)c(C(=O)NCc2onc(-c3ccc(F)cc3)c2-c2nc(C(=O)NC(C)C)cs2)c1 [Example 620]	> 1 µM
CC(C)NC(=O)c1csc(-c2oc(CNC(=O)c3cccc(Cl)c3[N+](=O)[O-])nc2-c2ccc(F)cc2)n1 [Example 270]	≤ 1 µM
CCC(=O)C(=O)NCc1nc(-c2ccc(F)cc2)c(-c2nc(C(=O)NC(C)C)cs2)o1 [Example 102]	≤ 1 µM
CC(C)NC(=O)c1csc(-c2oc(CNC(=O)C(C)O)nc2-c2ccc(F)cc2)n1 (stereo not drawn) [Example 101]	≤ 1 µM
CC(C)NC(=O)c1csc(-c2oc(CN3CCN(C(=O)Cc4ccccc4O)CC3)nc2-c2ccc(F)cc2)n1 [Example 380]	≤ 1 µM
CCCOc1ccc(C(=O)NCc2onc(-c3ccc(F)cc3)c2-c2nc(C(=O)NC(C)C)cs2)cc1 [Example 693]	> 1 µM
CC(=O)c1ccc(C(=O)NCc2nc(-c3ccc(F)cc3)c(-c3nc(C(=O)NC(C)C)cs3)o2)cc1 [Example 167]	≤ 1 µM
Cc1onc(-c2ccc(Cl)cc2)c1-c1ccn(C(=O)NC2CCCC2)n1 [Example 9, 3-|3-(4-Chloro-phenyl)-5-methyl-isoxazol-4-yl|-pyrazole-1-carboxylic acid cyclopentylamide]	≤ 1 µM
CC(C)NC(=O)c1csc(-c2oc(CNC(=O)c3c(F)cccc3F)nc2-c2ccc(F)cc2)n1 [Example 157]	≤ 1 µM
CC(C)CC(=O)NCc1onc(-c2ccc(F)cc2)c1-c1nc(C(=O)NC(C)C)cs1 [Example 579]	> 1 µM
CC1=NN(c2ccc(C(=O)NCc3onc(-c4ccc(F)cc4)c3-c3nc(C(=O)NC(C)C)cs3)cc2)C(=O)C1 [Example 776]	> 1 µM
CCCCCCCC(=O)N1CCN(Cc2nc(-c3ccc(F)cc3)c(-c3nc(C(=O)NC(C)C)cs3)o2)CC1 [Example 365]	> 1 µM
Cc1ccccc1CC(=O)NCc1nc(-c2ccc(F)cc2)c(-c2nc(C(=O)NC(C)C)cs2)o1 [Example 135]	> 1 µM
Cc1c(C(=O)N2CCN(Cc3nc(-c4ccc(F)cc4)c(-c4nc(C(=O)NC(C)C)cs4)o3)CC2)cccc1[N+](=O)[O-] [Example 460]	> 1 µM
CC(=O)c1ccc(C(=O)N2CCN(Cc3nc(-c4ccc(F)cc4)c(-c4nc(C(=O)NC(C)C)cs4)o3)CC2)cc1 [Example 404]	> 1 µM
CC(C)NC(=O)c1csc(-c2oc(CNC(=O)c3cc(F)c(F)cc3Cl)nc2-c2ccc(F)cc2)n1 [Example 258]	≤ 1 µM
CC(C)NC(=O)c1csc(-c2oc(CNC(=O)C(C)(C)C)nc2-c2ccc(F)cc2)n1 [Example 103]	≤ 1 µM
CC(C)NC(=O)c1csc(-c2oc(CN3CCN(C(=O)c4ccc(F)cc4)CC3)nc2-c2ccc(F)cc2)n1 [Example 363]	> 1 µM
CC(C)NC(=O)c1csc(-c2oc(CNC(=O)CC#N)nc2-c2ccc(F)cc2)n1 [Example 100]	≤ 1 µM
CC(C)NC(=O)c1csc(-c2c(-c3ccc(F)cc3)noc2CNC(=O)c2csc3ccccc23)n1 [Example 681]	> 1 µM
COc1ccc(C(=O)NCc2nc(-c3ccc(F)cc3)c(-c3nc(C(=O)NC(C)C)cs3)o2)c(OC)c1 [Example 225]	> 1 µM
Cc1ccccc1C(=O)NCc1onc(-c2ccc(F)cc2)c1-c1nc(C(=O)NC(C)C)cs1 [Example 597]	> 1 µM
COc1ccc(C(=O)NCc2onc(-c3ccc(F)cc3)c2-c2nc(C(=O)NC(C)C)cs2)cc1O [Example 664]	> 1 µM
CC(C)NC(=O)c1csc(-c2oc(CN3CCN(C(=O)c4cc(Cl)ccc4Cl)CC3)nc2-c2ccc(F)cc2)n1 [Example 490]	> 1 µM

Same assay, conditions: p38α kinase; Table 1 Biological Activity

SMILES	IC50
Cc1cnc(CNC(=O)c2csc(-c3sc(C)nc3-c3ccc(F)cc3)n2)cn1 [Example 1757]	≤ 1 µM
CC(C)NC(=O)c1csc(-c2c(-c3ccc(F)cc3)noc2CN2CCN(c3ccc(C(F)(F)F)cc3)CC2)n1 [Example 1622]	> 1 µM
CC(C)NC(=O)c1csc(-c2c(-c3ccc(F)cc3)noc2CN(CCCO)Cc2ccccn2)n1 [Example 1571]	> 1 µM
COc1ccc(CNCc2nc(-c3ccc(F)cc3)c(-c3nc(C(=O)NC(C)C)cs3)o2)cc1OC [Example 1162]	> 1 µM
O=C(NC1CCc2ccccc21)c1csc(-c2c(-c3ccc(F)cc3)n[nH]c2C2CCNCC2)n1 (stereo not drawn) [Example 2089]	> 1 µM
O=C(NCCC(c1ccccc1)c1ccccc1)c1csc(-c2c(-c3ccc(F)cc3)n[nH]c2C2CCNCC2)n1 [Example 2156]	> 1 µM
CC(C)NC(=O)c1csc(-c2oc(CNCCCNC(=O)OC(C)(C)C)nc2-c2ccc(F)cc2)n1 [Example 1165]	> 1 µM
Cc1cccc(N2CCN(Cc3nc(-c4ccc(F)cc4)c(-c4nc(C(=O)NC(C)C)cs4)o3)CC2)c1C [Example 1262]	> 1 µM
O=C(NCCc1ccc(F)cc1)c1csc(-c2c(-c3ccc(F)cc3)n[nH]c2C2CCNCC2)n1 [Example 2104]	> 1 µM
CCCNC(=O)c1csc(-c2sc(C)nc2-c2ccc(F)cc2)n1 [Example 1710]	> 1 µM
CC(C)NC(=O)c1csc(-c2c(-c3ccc(F)cc3)n[nH]c2C2CCN(C(=O)C3=CC=CC(Cl)C=C3[N+](=O)[O-])CC2)n1 (stereo not drawn) [Example 987]	> 1 µM
Cc1cc(C(=O)N2CCC(c3[nH]nc(-c4ccc(F)cc4)c3-c3nc(C(=O)NC(C)C)cs3)CC2)ccc1Br [Example 1006]	> 1 µM
CC(C)NC(=O)c1csc(-c2c(-c3ccc(F)cc3)noc2CN2CCC(C(N)=O)CC2)n1 [Example 1544]	> 1 µM
CC(C)NC(=O)c1csc(-c2c(-c3ccc(F)cc3)noc2CNc2ccc(N(C)C)cc2)n1 [Example 1684]	> 1 µM
CCCN(CCC)Cc1onc(-c2ccc(F)cc2)c1-c1nc(C(=O)NC(C)C)cs1 [Example 1528]	> 1 µM
CC(C)NC(=O)c1csc(-c2c(-c3ccc(F)cc3)n[nH]c2C2CCN(C(=O)c3cc(O)ccc3O)CC2)n1 [Example 860]	> 1 µM
CC(C)NC(=O)c1csc(-c2c(-c3ccc(F)cc3)noc2CN2CCN(C(=O)OC(C)(C)C)CC2)n1 [Example 1584]	> 1 µM
Cc1ccc(Cl)cc1N1CCN(Cc2nc(-c3ccc(F)cc3)c(-c3nc(C(=O)NC(C)C)cs3)o2)CC1 [Example 1284]	> 1 µM
COc1ccc(CCN(C)C(=O)c2csc(-c3sc(C)nc3-c3ccc(F)cc3)n2)cc1OC [Example 1923]	> 1 µM
O=C(NCCN1CCOCC1)c1csc(-c2c(-c3ccc(F)cc3)n[nH]c2C2CCNCC2)n1 [Example 2087]	> 1 µM
CC(C)NC(=O)c1csc(-c2oc(CNc3ncccc3OCc3ccccc3)nc2-c2ccc(F)cc2)n1 [Example 1371]	> 1 µM
O=C(NCCCCO)c1csc(-c2c(-c3ccc(F)cc3)n[nH]c2C2CCNCC2)n1 [Example 2053]	> 1 µM
Cc1ccc(C(=O)N2CCC(c3[nH]nc(-c4ccc(F)cc4)c3-c3nc(C(=O)NC(C)C)cs3)CC2)cc1 [Example 837]	> 1 µM

SMILES	IC50
CC(C)NC(=O)c1csc(-c2c(-c3ccc(F)cc3)noc2CNCCN2CCOCC2)n1 [Example 1441]	> 1 µM
CC(C)NC(=O)c1csc(-c2c(-c3ccc(F)cc3)n[nH]c2C2CCN(C(=O)c3cc([N+](=O)[O-])ccc3O)CC2)n1 [Example 948]	> 1 µM
CC(C)CC(C)NCc1onc(-c2ccc(F)cc2)c1-c1nc(C(=O)NC(C)C)cs1 (stereo not drawn) [Example 1411]	> 1 µM
CCOc1ccccc1NCc1nc(-c2ccc(F)cc2)c(-c2nc(C(=O)NC(C)C)cs2)o1 [Example 1342]	> 1 µM
Cc1nc(-c2ccc(F)cc2)c(-c2nc(C(=O)NC3CCCC3)cs2)s1 [Example 1721]	≤ 1 µM
O=C(NCC1(O)CCCCC1)c1csc(-c2c(-c3ccc(F)cc3)n[nH]c2C2CCNCC2)n1 [Example 2137]	> 1 µM
CCN(CC)CCCC(C)NCc1nc(-c2ccc(F)cc2)c(-c2nc(C(=O)NC(C)C)cs2)o1 (stereo not drawn) [Example 1153]	> 1 µM
CCN(CC)CCN(Cc1ccccc1)C(=O)c1csc(-c2sc(C)nc2-c2ccc(F)cc2)n1 [Example 1932]	> 1 µM
CC(C)NC(=O)c1csc(-c2oc(CN(C)CCc3ccccn3)nc2-c2ccc(F)cc2)n1 [Example 1228]	> 1 µM
CC(CNC(=O)c1csc(-c2c(-c3ccc(F)cc3)n[nH]c2C2CCNCC2)n1)c1ccccc1 (stereo not drawn) [Example 2095]	> 1 µM
CCOC(=O)C1CCN(C(=O)c2csc(-c3sc(C)nc3-c3ccc(F)cc3)n2)CC1 [Example 1887]	> 1 µM
CC(=O)c1ccc(C(=O)N2CCC(c3[nH]nc(-c4ccc(F)cc4)c3-c3nc(C(=O)NC(C)C)cs3)CC2)cc1 [Example 881]	> 1 µM
CC(C)NC(=O)c1csc(-c2c(-c3ccc(F)cc3)n[nH]c2C2CCN(C(=O)c3cccc4ccccc34)CC2)n1 [Example 908]	≤ 1 µM
CC(C)NC(=O)c1csc(-c2c(-c3ccc(F)cc3)n[nH]c2C2CCN(C(=O)/C=C/c3ccc(Cl)cc3)CC2)n1 [Example 944]	> 1 µM
CC(C)NC(=O)c1csc(-c2oc(CN3CCN(c4ccc([N+](=O)[O-])cc4)CC3)nc2-c2ccc(F)cc2)n1 [Example 1282]	> 1 µM
CC1CCC(NCc2nc(-c3ccc(F)cc3)c(-c3nc(C(=O)NC(C)C)cs3)o2)CC1 (stereo not drawn) [Example 1089]	> 1 µM
Cc1nc(-c2ccc(F)cc2)c(-c2nc(C(=O)N3CC(C)NC(C)C3)cs2)s1 (stereo not drawn) [Example 1860]	> 1 µM
Cc1ccc(F)cc1C(=O)N1CCC(c2[nH]nc(-c3ccc(F)cc3)c2-c2nc(C(=O)NC(C)C)cs2)CC1 [Example 864]	> 1 µM
O=C(NCCc1ccc2c(c1)OCO2)c1csc(-c2c(-c3ccc(F)cc3)n[nH]c2C2CCNCC2)n1 [Example 2155]	> 1 µM
CC(C)NC(=O)c1csc(-c2c(-c3ccc(F)cc3)n[nH]c2C2CCN(C(=O)C(Cc3ccccn3)NC(=O)OC(C)(C)C)CC2)n1 (stereo not drawn) [Example 1046]	> 1 µM
CC(C)NC(=O)c1csc(-c2c(-c3ccc(F)cc3)n[nH]c2C2CCN(C(=O)C(C)(C)C)CC2)n1 [Example 817]	≤ 1 µM
Cc1nc(-c2ccc(F)cc2)c(-c2nc(C(=O)NCCc3ccc4c(c3)OCO4)cs2)s1 [Example 1830]	≤ 1 µM
